Experiments:
Assay type in all cases: functional
Rattus norvegicus [1] = species: Rattus norvegicus; experiment: Membrane potential change (fluorescence-based in vitro assay using DIBAC4 as indicator) in A-10 smooth muscle cell, to estimate potassium channel opening activity at 0.1 uM
Rattus norvegicus [2] = species: Rattus norvegicus; experiment: Membrane potential change (fluorescence-based in vitro assay using DIBAC4 as indicator) in A-10 smooth muscle cell, to estimate potassium channel opening activity at 10 uM
Rattus norvegicus [3] = species: Rattus norvegicus; experiment: Membrane potential change (fluorescence-based in vitro assay using DIBAC4 as indicator) in A-10 smooth muscle cell, to estimate potassium channel opening activity at 1 uM

Row | Compound | Change (Rattus norvegicus [1]) [%] | Change (Rattus norvegicus [2]) [%] | Change (Rattus norvegicus [3]) [%]
1 | [O-][s+]1nc(Nc2cc(Cl)cc(Cl)c2)c(NC2CCCC2)n1 (stereo unspecified) | -5.82 | -4.17 | -1.36
2 | CC(C)Nc1n[s+]([O-])nc1Nc1cc(Cl)cc(Cl)c1 (stereo unspecified) | 2.12 | -9.36 | -5.37
3 | CC(N/C(=N\C#N)Nc1ccncc1)C(C)(C)C (stereo unspecified) | -5.89 | -57.4 | -45.6
4 | Nc1n[s+]([O-])nc1Nc1cc(Cl)cc(Cl)c1 (stereo unspecified) | 10.2 | -4.58 | -4.81
5 | [O-][s+]1nc(NCc2ccccc2)c(Nc2cc(Cl)cc(Cl)c2)n1 (stereo unspecified) | 7.83 | 0.84 | -0.91
6 | CCCNc1n[s+]([O-])nc1Nc1ccccc1 (stereo unspecified) | -3.75 | -1.05 | -4.86
7 | CCCCNc1n[s+]([O-])nc1Nc1cc(Cl)cc(Cl)c1 (stereo unspecified) | 1.29 | -44.7 | -10.3
8 | CCC(C)Nc1n[s+]([O-])nc1Nc1cc(Cl)cc(Cl)c1 (stereo unspecified) | -0.43 | -19 | 1.42
9 | [O-][s+]1nc(NCCCc2ccccc2)c(Nc2cc(Cl)cc(Cl)c2)n1 (stereo unspecified) | – | 14.1 | -19.7
10 | CC(C)(C)CNc1n[s+]([O-])nc1Nc1cc(Cl)cc(Cl)c1 (stereo unspecified) | 1.77 | 1.84 | 5.58
11 | [O-][s+]1nc(Nc2cc(Cl)cc(Cl)c2)c(NC2CC2)n1 (stereo unspecified) | 0.95 | -3.96 | -1.1
12 | CC(C)CCNc1n[s+]([O-])nc1Nc1cc(Cl)cc(Cl)c1 (stereo unspecified) | 10.7 | -45.5 | -12
13 | CCCNc1n[s+]([O-])nc1Nc1cc(Cl)cc(Cl)c1 (stereo unspecified) | 8.06 | -11.1 | 5.85
14 | [O-][s+]1nc(NCCCCc2ccccc2)c(Nc2cc(Cl)cc(Cl)c2)n1 (stereo unspecified) | -7.2 | 4.02 | -6.18
15 | CCCCCNc1n[s+]([O-])nc1Nc1ccccc1 (stereo unspecified) | -3.76 | -5.23 | -7.68
16 | [O-][s+]1nc(Nc2cc(Cl)cc(Cl)c2)c(NC2CCCCC2)n1 (stereo unspecified) | 2.05 | -17.7 | -2.39
17 | CC(C)CNc1n[s+]([O-])nc1Nc1cc(Cl)cc(Cl)c1 (stereo unspecified) | -1.32 | 10.8 | -3.59
18 | CCCCCNc1n[s+]([O-])nc1Nc1cc(Cl)cc(Cl)c1 (stereo unspecified) | 8.48 | -26.3 | -10.6
19 | [O-][s+]1nc(NCCc2ccccc2)c(Nc2cc(Cl)cc(Cl)c2)n1 (stereo unspecified) | -1.01 | – | -1.29
20 | [O-][s+]1nc(Nc2cc(Cl)cc(Cl)c2)c(NC2CCC2)n1 (stereo unspecified) | -5.89 | -21.8 | -4.23
21 | CNc1n[s+]([O-])nc1Nc1cc(Cl)cc(Cl)c1 (stereo unspecified) | -16 | -33.6 | -25.1

— ChEMBL document CHEMBL1150487, “Cyanoguanidine bioisosteres in potassium channel openers: Evaluation of 3,4-disubstituted-1,2,5-thiadiazole-1-oxides” (Bioorg Med Chem Lett, 1996)
